The values below are quoted from earlier work in patent US20080063637A1, “Regulation of oncogenesis by Akt-specific isoforms” (The Trustees of Tufts College, priority 2006, published 2008).

Series [1] deals with corresponding Akt isoforms (phosphorylation by PDK1). As to conditions: Barnett et al. 2005.
Series [2] concerns LNCap prostate cancer cells. As to conditions: Barnett et al. 2005.

For `O=c1[nH]c2ccccc2n1C1CCN(Cc2ccc(-c3nc4cc5nc[nH]c5cc4nc3-c3ccccc3)cc2)CC1` [Akt-I-1,2], the “phosphorylation and activation of the corresponding Akt isoforms by PDK1” value in series [1] was “blocked”. The TRAIL-induced apoptosis result in series [2] is “promote”.
